In patent publication US20060233714A1, “Use of a volatile liquid at atmospheric pressure and ambient temperature for the production of pharmaceutical or biological compositions” (priority 2003, published 2006):

Columns and labels:
[1] = Evaporation time of the liquid brought into contact with living human hands; assay type: physicochemical; details: liquid applied to living human hands/skin; averages; 1 ml or 2 ml
Experimental: For an HFE having a vapor pressure at 25° C. and atmospheric pressure of 28,000 Pa (280 mbar), the evaporation time when 1 ml is brought into contact with living human hands was about 4 seconds; for an HFE having a vapor pressure at 25° C. and atmospheric pressure of 14,000 Pa (140 mbar), the evaporation time was 7 seconds; for an HFE having a vapor pressure at 25° C. and atmospheric pressure of 2100 Pa (21 mbar), the evaporation time was about 15 seconds; and for an HFE having a vapor pressure at 25° C. and atmospheric pressure of 69,800 Pa, the evaporation time was about 1 s.
The evaporation times indicated above are averages for 2 ml applied to the skin. They depend in particular on the temperature of the substrate to which they are applied and can vary between individuals, for application to the skin and mucosae, according to the body temperature and room temperature.

[2] = Vapor pressure at 25° C. and atmospheric pressure

| Molecule | evaporation time on the hands [1] | vapor pressure at 25° C. and atmospheric pressure [2] |
| --- | --- | --- |
| ethoxynonafluorobutane | about 7 s | – |
| COC(F)(F)C(F)(F)C(F)(F)F [methoxyheptafluoropropane] | about 1 s | 69,800 Pa |
| methoxynonafluorobutane | about 4 s | 28,000 Pa |
